Data: patent US9284319B2, “Heterocyclyl aminoimidazopyridazines” (BAYER INTELLECTUAL PROPERTY GMBH, priority 2011, dated 2016)

Tests used:
human full-length MKNK1 [1] = target: T1, human full-length MKNK1 (Homo sapiens (Human), UniProt Q9BUB5, T344D); assay: MKNK1 kinase assay (TR-FRET); type: biochemical; conditions: ATP 10 μM final; 15 min preincubation with enzyme
Experimental: MKNK1-inhibitory activity of compounds of the present invention was quantified employing the MKNK1 TR-FRET assay as described in the following paragraphs.
As substrate for the kinase reaction the biotinylated peptide biotin-Ahx-[…] (C-terminus in amide form) was used which can be purchased e.g. form the company Biosyntan (Berlin-Buch, Germany).
(§1) For the assay 50 nL of a 100 fold concentrated solution of the test compound in DMSO was pipetted into a black low volume 384 well microtiter plate (Greiner Bio-One, Frickenhausen, Germany), 2 μL of a solution of MKNK1 in aqueous assay buffer [50 mM HEPES pH 7.5, 5 mM magnesium chloride, 1.0 mM dithiothreitol, 0.005% (v/v) Nonidet-P40 (Sigma)] was added and the mixture was incubated for 15 min at 22° C. to allow pre-binding of the test compounds to the enzyme before the start of the kinase reaction. Then the kinase reaction was started by the addition of 3 μL of a solution of adenosine-tri-phosphate (ATP, 16.7 μM=>final conc. in the 5 μL assay volume is 10 μM) and substrate (0.1 μM=>final conc. in the 5 μL assay volume is 0.06 μM) in assay buffer and the resulting mixture was incubated for a reaction time of 45 min at 22° C. The concentration of MKNK1 was adjusted depending of the activity of the enzyme lot and was chosen appropriate to have the assay in the linear range, typical concentrations were in the range of 0.05 μg/mL. The reaction was stopped by the addition of 5 μL of a solution of TR-FRET detection reagents (5 nM streptavidine-XL665 [Cisbio Bioassays, Codolet, France] and 1 nM anti-ribosomal protein S6 (pSer236)-antibody from Invitrogen [#44921G] and 1 nM LANCE EU-W1024 labeled ProteinG [Perkin-Elmer, product no. AD0071]) in an aqueous EDTA-solution (100 mM EDTA, 0.1% (w/v) bovine serum albumin in 50 mM HEPES pH 7.5).
(§2) The resulting mixture was incubated for 1 h at 22° C. to allow the formation of complex between the phosphorylated biotinylated peptide and the detection reagents. Subsequently the amount of phosphorylated substrate was evaluated by measurement of the resonance energy transfer from the Eu-chelate to the streptavidine-XL. Therefore, the fluorescence emissions at 620 nm and 665 nm after excitation at 350 nm were measured in a TR-FRET reader, e.g. a Rubystar (BMG Labtechnologies, Offenburg, Germany) or a Viewlux (Perkin-Elmer). The ratio of the emissions at 665 nm and at 622 nm was taken as the measure for the amount of phosphorylated substrate.

human full-length MKNK1 [2] = target: T1, human full-length MKNK1; assay: MKNK1 kinase high ATP assay (TR-FRET); type: biochemical; conditions: ATP 2 mM final; 15 min preincubation with enzyme
Experimental: MKNK1 Kinase High ATP Assay
MKNK1-inhibitory activity at high ATP of compounds of the present invention after their preincubation with MKNK1 was quantified employing the TR-FRET-based MKNK1 high ATP assay as described in the following paragraphs.
As substrate for the kinase reaction the biotinylated peptide biotin-Ahx-[…] (C-terminus in amide form) was used, which can be purchased e.g. from the company Biosyntan (Berlin-Buch, Germany).
as §1, with “3.3 mM=>final” for “16.7 μM=>final”, “2 mM)” for “10 μM)”, “30” for “45”, “0.003” for “0.05”
as §2

T1 sequence (Q9BUB5 other isoform, or with tags, fused parts or gaps T344D): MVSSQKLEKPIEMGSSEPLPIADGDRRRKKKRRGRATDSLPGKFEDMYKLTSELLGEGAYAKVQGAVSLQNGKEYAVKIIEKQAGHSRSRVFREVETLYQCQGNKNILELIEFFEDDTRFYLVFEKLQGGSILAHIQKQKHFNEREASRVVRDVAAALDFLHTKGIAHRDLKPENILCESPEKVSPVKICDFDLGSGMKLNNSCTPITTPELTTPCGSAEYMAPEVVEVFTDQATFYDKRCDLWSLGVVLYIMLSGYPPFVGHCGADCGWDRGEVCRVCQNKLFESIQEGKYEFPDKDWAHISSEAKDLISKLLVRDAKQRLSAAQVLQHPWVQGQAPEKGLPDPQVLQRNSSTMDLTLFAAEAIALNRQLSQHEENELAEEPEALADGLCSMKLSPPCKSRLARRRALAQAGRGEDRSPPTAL

IC50 (human full-length MKNK1 [1]) [µM]	IC50 (human full-length MKNK1 [2]) [µM]	Compound
0.019	0.007	OC[C@@H]1CCCN1c1ccc2ncc(-c3cc4ccccc4o3)n2n1 [Example 1, {(2S)-1-[3-(1-Benzofuran-2-yl)imidazo[1,2-b]pyridazin-6-yl]pyrrolidin-2-yl}methanol]
0.042	0.022	OC[C@H]1CCCN1c1ccc2ncc(-c3cc4ccccc4o3)n2n1 [Example 2, {(2R)-1-[3-(1-Benzofuran-2-yl)imidazo-[1,2-b]-pyridazin-6-yl]pyrrolidin-2-yl}-methanol]
0.017	0.006	OC1CCN(c2ccc3ncc(-c4cc5ccccc5o4)n3n2)C1 (stereo not drawn) [Example 3, 1-[3-(1-Benzofuran-2-yl)imidazo[1,2-b]pyridazin-6-yl]pyrrolidin-3-ol]
0.044	0.015	O[C@@H]1CCCN(c2ccc3ncc(-c4cc5ccccc5o4)n3n2)C1 [Example 4, (3R)-1-[3-(1-Benzofuran-2-yl)imidazo[1,2-b]pyridazin-6-yl]piperidin-3-ol]
0.037	0.013	OCC1CCCN(c2ccc3ncc(-c4cc5ccccc5o4)n3n2)C1 (stereo not drawn) [Example 5, {1-[3-(1-Benzofuran-2-yl)imidazo[1,2-b]pyridazin-6-yl]piperidin-3-yl}methanol]
0.033	0.012	OC1CN(c2ccc3ncc(-c4cc5ccccc5o4)n3n2)C1 [Example 6, 1-[3-(1-Benzofuran-2-yl)imidazo[1,2-b]pyridazin-6-yl]azetidin-3-ol]
0.014	0.004	OC[C@@H]1CCN(c2ccc3ncc(-c4cc5ccccc5o4)n3n2)C1 [Example 7, {(3R)-1-[3-(1-Benzofuran-2-yl)imidazo[1,2-b]pyridazin-6-yl]pyrrolidin-3-yl}methanol]
0.019	0.015	O[C@H]1CCN(c2ccc3ncc(-c4cc5ccccc5o4)n3n2)C1 [Example 8, (3S)-1-[3-(1-Benzofuran-2-yl)imidazo[1,2-b]pyridazin-6-yl]pyrrolidin-3-ol]
0.015	–	O[C@@H]1CCN(c2ccc3ncc(-c4cc5ccccc5o4)n3n2)C1 [Example 9, (3R)-1-[3-(1-Benzofuran-2-yl)imidazo[1,2-b]pyridazin-6-yl]pyrrolidin-3-ol]
0.02	–	OC[C@H]1CCN(c2ccc3ncc(-c4cc5ccccc5o4)n3n2)C1 [Example 10, {(3S)-1-[3-(1-Benzofuran-2-yl)imidazo[1,2-b]pyridazin-6-yl]pyrrolidin-3-yl}methanol]
